{"source": "patent US20230176063A1", "about": "“PHOTOREACTIVE AND CLEAVABLE PROBES FOR TAGGING BIOMOLECULES” (Academia Sinica, priority 2020, published 2023)", "system": "nucleolin", "test": "photoselective tagging of nucleolin using azo probe", "type": "cell-based", "conditions": "fixed U2OS cells", "protocol": "Nucleolin is a protein found in the nucleolus of eukaryotic cells and involved in the synthesis of ribosomes. Azo-probe 1 was conjugated to a secondary antibody by using BCN-NHS (CAS# 1516551-46-4) as additional linker between Azo-probe 1 and secondary antibody. A sample of U2OS cells was grown on a glass-bottom chamber slide and fixed with 2.4% PFA. The antibody conjugated with Azo-probe 1 was applied to the sample stained with anti-nucleolin antibody. The sample was exposed to 780 nm two-photon irradiation (200mW, 200 µs/pixel) to photocrosslink the light activated warhead to the antibody and subsequently incubated with 1 M sodium dithionite at room temperature for over 16 h to remove non-crosslinked probes. Neutravidin conjugated to Alexa Fluor 647 dye was added and the sample assayed for the Alexa Fluor 647. Alexa Fluor 647 is a bright, far-red-fluorescent dye with excitation ideally suited for the 594 nm or 633 nm laser lines. Results are shown in the top panel of FIG. 12B. A close-up view is shown in the top right side of FIG. 12B. […] A side view is shown in the bottom right of FIG. 12B.", "data": [{"molecule": "O=C(CCCC[C@@H]1SC[C@@H]2NC(=O)N[C@@H]21)N[C@@H](Cc1cn(CCOCCOCCOCCNC(=O)c2ccc(C(=O)c3ccccc3)cc2)nn1)C(=O)NCCc1ccc(O)c(/N=N/c2ccc(C(=O)ON3C(=O)CCC3=O)cc2)c1", "note": "[Azo-probe 1]", "values": [{"measurement": "Alexa Fluor 647 (Neutravidin) staining of tagged nucleolin", "setting": "probe conjugated to secondary antibody via BCN-NHS, 780 nm two-photon irradiation (200mW, 200 µs/pixel), 1 M sodium dithionite over 16 h", "result": "characteristic nucleoli shape is observed"}, {"measurement": "Alexa Fluor 647 (Neutravidin) staining of tagged nucleolin, control region", "setting": "treated the same but not exposed to photoactivating light", "result": "No significant staining was observed"}]}]}
